Where only a bound is given, the exact number is not on record here.

Assay [1] concerns ATP aptamer (ATP aptamer G-quadruplex) (DNA, aptamer) AACCTGGGGGAGTATTGCGGAGGAAGGT
As to the kind of experiment: G4-FID, thiazole orange displacement. The following applies: 100 mM KCl; 50 mM Tris-HCl pH 7.0; 0.25 µM DNA; 0.5 µM thiazole orange displaced.

For assay [2], the system named is H21 (DNA, G4) GGGTTAGGGTTAGGGTTAGGG
Kind of assay: luminescence enhancement of complex 2. The following applies: 50 mM KCl; 20-25 mM Tris-HCl pH 7.0; 1 µM complex, 5 µM DNA; up to 8-fold enhancement.

Assay [3] relates to ATP aptamer duplex (ATP aptamer + complementary strand) (DNA, duplex) AACCTGGGGGAGTATTGCGGAGGAAGGT/ACCTTCCTCCGCAATACTCCCCCAGGTT
Kind of assay: luminescence enhancement of complex 2. The note with it: none added; 20 mM Tris-HCl pH 7.3, 25°C; slightly emissive without ATP.

Assay [4] deals with ssDNA (DNA, single strand) GAAATTCTTAAGTGCGATCGAG
As to the kind of experiment: luminescence enhancement of complex 2. The note with it: 50 mM KCl; 20-25 mM Tris-HCl pH 7.0; 1 µM complex, 5 µM DNA; minimal luminescence change.

For assay [5], the system named is HTS (DNA, G4) TTAGGGTTAGGGTTAGGGTTAGGG
Kind of assay: luminescence enhancement of complex 2. The note with it: 50 mM KCl; 20-25 mM Tris-HCl pH 7.0; 1 µM complex, 5 µM DNA; up to 8-fold enhancement.

Assay [6] concerns ATP aptamer (ATP aptamer G-quadruplex) (DNA, aptamer) AACCTGGGGGAGTATTGCGGAGGAAGGT
As to the kind of experiment: fluorescence, tracer in G4-FID. The following applies: 100 mM KCl, 50 mM Tris-HCl pH 7.0, 0.25 µM DNA, 0.5 µM thiazole orange.

As to `[Ir+3].[c-]1ccccc1-c1ccccn1.[c-]1ccccc1-c1ccccn1.c1ccc2nc(-c3ccc4ccccc4n3)ccc2c1`, the G4DC50 in assay [1] was more than 6 µM.

For the molecule `[Ir+3].[c-]1ccccc1-c1nccc2ccccc12.[c-]1ccccc1-c1nccc2ccccc12.c1ccc2nc(-c3ccc4ccccc4n3)ccc2c1`, the binding entry in assay [2] was “yes”; in assay [3], “weak”; in assay [4], “no”; in assay [5], “yes”. For the same molecule, the G4DC50 in assay [1] was 5 µM.

With `CN1C(=Cc2cc[n+](C)c3ccccc23)Sc2ccccc21`, in assay [6], the binding entry is reported as “yes”.

The record behind these values is article PMC3808368 (2013).
